# Results as given in patent US11384101B2, “Oral care compositions” (priority 2017, dated 2022).
# Like-named read-outs stand apart in the source and are kept apart here.
# Assays:
# oral bacteria = assay: Alamar Blue assay of antibacterial efficacy in the presence of SLS; type: cell-based, oral bacteria from human saliva; settings: 1 hour after addition of dye; for presence or absence of live bacteria (indicated by color): Alamar Blue assay in the presence of SLS; for Color of Solution: Alamar Blue, 10 mg active + 20 mg of 30 weight % SLS solution + 5 ml oral bacteria solution, 37° C., blue to red indicates live bacteria
# Protocol: Table 1 describes the results of an assay evaluating the antibacterial efficacy of an exemplary CPC-ZnCl2 complex of the present invention, in the presence of an anionic surfactant. […] A negative control was also prepared adding 20 mg (+/− 0.9 mg) of the 30 weight % SLS aqueous solution and 5 ml of the prepared oral bacteria solution to deionized water instead of the antibacterial ingredient. The samples were then placed in a 37° C. oven and shaken at 100 RPM for 30 minutes. 200 μL of Alamar Blue dye was then added to each sample and placed back in the 37° C. oven and shaken at 100 RPM. The samples were then monitored every 30 minutes, with the results 1 hour after addition of the dye recorded in Table 1.
# [1] = deionized water, physiological temperature (36-37° C.)
# [2] = deionized water, room temperature (23-24° C.)
# [3] = deionized water, room temperature (23-24° C.), even after 24 hours of aging
Compound,presence or absence of live bacteria (indicated by color) (oral bacteria),Color of Solution (oral bacteria),solubility of 1.0 weight % aqueous solution [1],solubility of 10 weight % aqueous solution [1],solubility of 0.1 weight % aqueous solution [2],solubility of 0.5 weight % aqueous solution [2],solubility of 1.0 weight % aqueous solution [3],solubility of 10.0 weight % aqueous solution [3],reduction in solubility compared to the CPC and ZnCl2 reactants separately (water)
"CCCCCCCCCCCCCCCC[n+]1ccccc1 [CPC, Cetylpyridinium chloride]",presence of live bacteria,Pink,,,,,,,
"CCCCCCCCCCCCCCCC[n+]1ccccc1.CCCCCCCCCCCCCCCC[n+]1ccccc1.[Cl][Zn-2]([Cl])([Cl])[Cl] [CPC-ZnCl2 complex, [(C21H38N)2][ZnCl4]]",absence of live bacteria,Blue,soluble,not fully soluble,soluble,soluble,undissolved,undissolved,≥ 25 fold
"[Cl-].[Cl-].[Zn+2] [ZnCl2, zinc chloride]",presence of live bacteria,Purple,,,,,,,
